Tests used:
[1] = molecular target: Glutamate NMDA receptor; GRIN1/GRIN2B (Homo sapiens, UniProt Q05586+Q13224); assay: Positive allosteric modulation of recombinant human GluN1/GluN2B receptor stably expressed in HEK293 cells assessed as increase in glycine/L-glutamate-induced channel current at -70 mV holding potential by whole cell patch clamp method; assay type: cell-based
[2] = Metabolic stability in mouse liver microsomes assessed as intrinsic clearance at 10 uM preincubated for 5 mins followed by NADPH addition and measured upto 65 mins by LC-MS/MS analysis; assay type: ADME, Microsome; conditions: time < 70 min, read-out: CLH
[3] = Metabolic stability in rat hepatocytes assessed as clearance at 10 uM measured upto 120 mins by LC-MS/MS analysis; assay type: ADME, cell-based, Hepatocyte; conditions: 2 h
[4] = Metabolic stability in dog hepatocytes assessed as clearance at 10 uM measured upto 120 mins by LC-MS/MS analysis; assay type: ADME, cell-based, Canis lupus familiaris, Hepatocyte; conditions: 2 h
[5] = Metabolic stability in human hepatocytes assessed as clearance at 10 uM measured upto 120 mins by LC-MS/MS analysis; assay type: ADME, cell-based, Hepatocyte; conditions: 2 h
[6] = Metabolic stability in dog liver microsomes assessed as intrinsic clearance at 10 uM preincubated for 5 mins followed by NADPH addition and measured upto 65 mins by LC-MS/MS analysis; assay type: ADME, Canis lupus familiaris, Microsome; conditions: time < 70 min, read-out: CLH
[7] = Oral bioavailability in Sprague-Dawley rat by LC-MS/MS analysis; assay type: ADME, organism-based; conditions: in vivo
[8] = Oral bioavailability in Beagle dog by LC-MS/MS analysis; assay type: ADME, organism-based, Canis lupus familiaris; conditions: in vivo
[9] = Ratio of drug concentration in ip dosed CD-1 mouse brain to plasma after 1 hr by LC-MS/MS analysis; assay type: ADME, organism-based; conditions: brain and plasma
Cytochrome P450 2B6 = molecular target: T1, Cytochrome P450 2B6 (Homo sapiens, UniProt P20813); assay: Inhibition of CYP2B6 (unknown origin); assay type: ADME
T1 sequence (P20813 whole entry): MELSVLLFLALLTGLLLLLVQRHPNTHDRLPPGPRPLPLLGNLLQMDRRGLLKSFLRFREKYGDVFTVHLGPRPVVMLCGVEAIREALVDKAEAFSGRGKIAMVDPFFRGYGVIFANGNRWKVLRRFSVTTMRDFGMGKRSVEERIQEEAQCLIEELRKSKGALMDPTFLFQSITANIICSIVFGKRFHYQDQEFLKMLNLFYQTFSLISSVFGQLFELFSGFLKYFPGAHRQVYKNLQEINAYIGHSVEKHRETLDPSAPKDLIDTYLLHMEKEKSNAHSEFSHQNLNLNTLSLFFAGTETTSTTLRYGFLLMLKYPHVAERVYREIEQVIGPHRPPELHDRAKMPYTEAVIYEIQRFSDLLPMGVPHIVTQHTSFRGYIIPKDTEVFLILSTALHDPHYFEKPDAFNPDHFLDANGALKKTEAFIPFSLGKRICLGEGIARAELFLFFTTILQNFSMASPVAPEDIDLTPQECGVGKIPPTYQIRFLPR

Cytochrome P450 2C8 = molecular target: T2, Cytochrome P450 2C8 (Homo sapiens, UniProt P10632); assay: Inhibition of CYP2C8 (unknown origin); assay type: ADME
T2 sequence (P10632 whole entry): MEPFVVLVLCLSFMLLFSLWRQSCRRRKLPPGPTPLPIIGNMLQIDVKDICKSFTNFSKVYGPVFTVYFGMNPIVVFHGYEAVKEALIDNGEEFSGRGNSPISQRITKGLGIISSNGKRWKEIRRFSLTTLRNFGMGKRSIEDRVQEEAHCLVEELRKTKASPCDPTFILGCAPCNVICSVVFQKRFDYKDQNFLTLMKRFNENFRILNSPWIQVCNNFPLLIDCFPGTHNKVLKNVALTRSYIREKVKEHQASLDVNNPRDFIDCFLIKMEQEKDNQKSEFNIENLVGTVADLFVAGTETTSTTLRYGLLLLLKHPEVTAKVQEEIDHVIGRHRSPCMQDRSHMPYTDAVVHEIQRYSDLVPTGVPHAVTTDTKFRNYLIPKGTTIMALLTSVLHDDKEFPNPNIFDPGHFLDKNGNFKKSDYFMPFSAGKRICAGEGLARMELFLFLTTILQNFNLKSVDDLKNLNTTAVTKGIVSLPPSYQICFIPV

Cytochrome P450 2C9 = Cytochrome P450 2C9 (Homo sapiens, UniProt P11712); assay: Inhibition of CYP2C9 (unknown origin); assay type: ADME
[10] = Plasma protein binding in mouse after 15 mins by equilibrium dialysis method; assay type: ADME, cell-free; conditions: read-out: PPB (converted)
[11] = Plasma protein binding in human after 15 mins by equilibrium dialysis method; assay type: ADME, cell-free; conditions: read-out: PPB (converted)
[12] = molecular target: Sodium channel protein type 5 subunit alpha (Homo sapiens, UniProt Q14524); assay: Inhibition of NaV1.5 (unknown origin)
[13] = molecular target: Voltage-gated inwardly rectifying potassium channel KCNH2 (Homo sapiens, UniProt Q12809); assay: Inhibition of human ERG; assay type: toxicity
[14] = molecular target: Voltage-dependent L-type calcium channel subunit alpha-1C (Homo sapiens, UniProt Q13936); assay: Inhibition of CaV1.2 (unknown origin) by patch clamp method
[15] = Inhibition of Kv4.3/KChIP2.2 (unknown origin) by patch clamp method; set-up: species or system Homo sapiens
[16] = molecular target: Ionotropic glutamate receptor NMDA 1/2D (Homo sapiens, UniProt O15399+Q05586); assay: Positive allosteric modulation of recombinant human GluN1/GluN2D receptor stably expressed in HEK293 cells assessed as increase in glycine/L-glutamate-induced channel current at -70 mV holding potential by whole cell patch clamp method
Mus musculus [17] = assay: Reversal of DOI-induced hyperlocomotion in CD-1 mouse assessed as reduction in distance travel at 3 mg/kg, ip administered 90 mins prior to DOI induction and measured upto 30 mins post DOI treatment (reference value: 7.8 +/- 0.8 meter); assay type: functional; conditions: time <= 120 min, 2 h
Mus musculus [18] = assay: Reversal of DOI-induced hyperlocomotion in CD-1 mouse assessed as reduction in distance travel at 5 mg/kg, ip administered 90 mins prior to DOI induction and measured upto 30 mins post DOI treatment (reference value: 7.8 +/- 0.8 meter); assay type: functional; conditions: time <= 120 min, 2 h
Mus musculus [19] = assay: Reversal of DOI-induced hyperlocomotion in CD-1 mouse assessed as reduction in rearing at 5 mg/kg, ip administered 90 mins prior to DOI induction and measured upto 30 mins post DOI treatment (reference value: 59.8 +/- 8.6 Counts); assay type: functional; conditions: time <= 120 min, 2 h
Mus musculus [20] = assay: Reversal of DOI-induced hyperlocomotion in CD-1 mouse assessed as reduction in rearing at 10 mg/kg, ip administered 90 mins prior to DOI induction and measured upto 30 mins post DOI treatment (reference value: 59.8 +/- 8.6 Counts); assay type: functional; conditions: time <= 120 min, 2 h
[21] = Drug concentration in CD-1 mouse plasma at 5 mg/kg, ip administered for 90 mins; assay type: ADME, organism-based
[22] = Drug concentration in CD-1 mouse plasma at 10 mg/kg, ip administered for 90 mins; assay type: ADME, organism-based
[23] = Drug concentration in CD-1 mouse brain at 3 mg/kg, ip administered for 90 mins; assay type: ADME, organism-based; conditions: read-out: Ct
[24] = Drug concentration in CD-1 mouse brain at 10 mg/kg, ip administered for 90 mins; assay type: ADME, organism-based; conditions: read-out: Ct

Sequence of Voltage-gated inwardly rectifying potassium channel KCNH2 (Q12809 whole entry): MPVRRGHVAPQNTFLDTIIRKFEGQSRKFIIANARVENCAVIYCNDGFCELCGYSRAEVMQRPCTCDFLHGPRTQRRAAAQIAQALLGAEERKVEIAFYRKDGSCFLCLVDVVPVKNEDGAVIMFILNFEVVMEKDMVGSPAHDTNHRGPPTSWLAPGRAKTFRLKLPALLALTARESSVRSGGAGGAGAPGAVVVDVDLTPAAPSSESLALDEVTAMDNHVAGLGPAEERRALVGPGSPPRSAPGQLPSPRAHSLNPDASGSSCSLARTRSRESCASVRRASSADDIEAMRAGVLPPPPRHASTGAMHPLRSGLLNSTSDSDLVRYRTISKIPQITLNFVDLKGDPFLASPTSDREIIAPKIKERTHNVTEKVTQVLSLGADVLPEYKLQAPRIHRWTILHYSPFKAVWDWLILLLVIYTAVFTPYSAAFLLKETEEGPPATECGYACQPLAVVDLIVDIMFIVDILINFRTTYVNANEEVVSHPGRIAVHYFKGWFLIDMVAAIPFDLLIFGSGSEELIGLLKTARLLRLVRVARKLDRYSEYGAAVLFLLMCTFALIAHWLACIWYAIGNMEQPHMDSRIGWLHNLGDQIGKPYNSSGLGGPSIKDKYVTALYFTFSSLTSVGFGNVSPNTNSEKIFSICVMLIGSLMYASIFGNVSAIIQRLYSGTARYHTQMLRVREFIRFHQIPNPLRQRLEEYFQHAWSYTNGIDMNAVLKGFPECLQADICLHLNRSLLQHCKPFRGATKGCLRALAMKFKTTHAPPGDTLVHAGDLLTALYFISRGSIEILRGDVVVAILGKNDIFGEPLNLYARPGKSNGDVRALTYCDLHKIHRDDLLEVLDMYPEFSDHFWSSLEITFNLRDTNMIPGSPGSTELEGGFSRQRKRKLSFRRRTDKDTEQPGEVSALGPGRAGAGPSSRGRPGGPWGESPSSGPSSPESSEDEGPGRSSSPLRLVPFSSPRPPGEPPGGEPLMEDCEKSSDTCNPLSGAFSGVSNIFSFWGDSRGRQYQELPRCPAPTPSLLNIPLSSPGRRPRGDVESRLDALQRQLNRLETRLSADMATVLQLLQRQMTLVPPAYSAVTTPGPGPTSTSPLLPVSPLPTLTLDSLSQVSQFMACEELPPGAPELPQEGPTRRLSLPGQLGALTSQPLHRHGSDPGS
Sequence of Voltage-dependent L-type calcium channel subunit alpha-1C (Q13936 whole entry): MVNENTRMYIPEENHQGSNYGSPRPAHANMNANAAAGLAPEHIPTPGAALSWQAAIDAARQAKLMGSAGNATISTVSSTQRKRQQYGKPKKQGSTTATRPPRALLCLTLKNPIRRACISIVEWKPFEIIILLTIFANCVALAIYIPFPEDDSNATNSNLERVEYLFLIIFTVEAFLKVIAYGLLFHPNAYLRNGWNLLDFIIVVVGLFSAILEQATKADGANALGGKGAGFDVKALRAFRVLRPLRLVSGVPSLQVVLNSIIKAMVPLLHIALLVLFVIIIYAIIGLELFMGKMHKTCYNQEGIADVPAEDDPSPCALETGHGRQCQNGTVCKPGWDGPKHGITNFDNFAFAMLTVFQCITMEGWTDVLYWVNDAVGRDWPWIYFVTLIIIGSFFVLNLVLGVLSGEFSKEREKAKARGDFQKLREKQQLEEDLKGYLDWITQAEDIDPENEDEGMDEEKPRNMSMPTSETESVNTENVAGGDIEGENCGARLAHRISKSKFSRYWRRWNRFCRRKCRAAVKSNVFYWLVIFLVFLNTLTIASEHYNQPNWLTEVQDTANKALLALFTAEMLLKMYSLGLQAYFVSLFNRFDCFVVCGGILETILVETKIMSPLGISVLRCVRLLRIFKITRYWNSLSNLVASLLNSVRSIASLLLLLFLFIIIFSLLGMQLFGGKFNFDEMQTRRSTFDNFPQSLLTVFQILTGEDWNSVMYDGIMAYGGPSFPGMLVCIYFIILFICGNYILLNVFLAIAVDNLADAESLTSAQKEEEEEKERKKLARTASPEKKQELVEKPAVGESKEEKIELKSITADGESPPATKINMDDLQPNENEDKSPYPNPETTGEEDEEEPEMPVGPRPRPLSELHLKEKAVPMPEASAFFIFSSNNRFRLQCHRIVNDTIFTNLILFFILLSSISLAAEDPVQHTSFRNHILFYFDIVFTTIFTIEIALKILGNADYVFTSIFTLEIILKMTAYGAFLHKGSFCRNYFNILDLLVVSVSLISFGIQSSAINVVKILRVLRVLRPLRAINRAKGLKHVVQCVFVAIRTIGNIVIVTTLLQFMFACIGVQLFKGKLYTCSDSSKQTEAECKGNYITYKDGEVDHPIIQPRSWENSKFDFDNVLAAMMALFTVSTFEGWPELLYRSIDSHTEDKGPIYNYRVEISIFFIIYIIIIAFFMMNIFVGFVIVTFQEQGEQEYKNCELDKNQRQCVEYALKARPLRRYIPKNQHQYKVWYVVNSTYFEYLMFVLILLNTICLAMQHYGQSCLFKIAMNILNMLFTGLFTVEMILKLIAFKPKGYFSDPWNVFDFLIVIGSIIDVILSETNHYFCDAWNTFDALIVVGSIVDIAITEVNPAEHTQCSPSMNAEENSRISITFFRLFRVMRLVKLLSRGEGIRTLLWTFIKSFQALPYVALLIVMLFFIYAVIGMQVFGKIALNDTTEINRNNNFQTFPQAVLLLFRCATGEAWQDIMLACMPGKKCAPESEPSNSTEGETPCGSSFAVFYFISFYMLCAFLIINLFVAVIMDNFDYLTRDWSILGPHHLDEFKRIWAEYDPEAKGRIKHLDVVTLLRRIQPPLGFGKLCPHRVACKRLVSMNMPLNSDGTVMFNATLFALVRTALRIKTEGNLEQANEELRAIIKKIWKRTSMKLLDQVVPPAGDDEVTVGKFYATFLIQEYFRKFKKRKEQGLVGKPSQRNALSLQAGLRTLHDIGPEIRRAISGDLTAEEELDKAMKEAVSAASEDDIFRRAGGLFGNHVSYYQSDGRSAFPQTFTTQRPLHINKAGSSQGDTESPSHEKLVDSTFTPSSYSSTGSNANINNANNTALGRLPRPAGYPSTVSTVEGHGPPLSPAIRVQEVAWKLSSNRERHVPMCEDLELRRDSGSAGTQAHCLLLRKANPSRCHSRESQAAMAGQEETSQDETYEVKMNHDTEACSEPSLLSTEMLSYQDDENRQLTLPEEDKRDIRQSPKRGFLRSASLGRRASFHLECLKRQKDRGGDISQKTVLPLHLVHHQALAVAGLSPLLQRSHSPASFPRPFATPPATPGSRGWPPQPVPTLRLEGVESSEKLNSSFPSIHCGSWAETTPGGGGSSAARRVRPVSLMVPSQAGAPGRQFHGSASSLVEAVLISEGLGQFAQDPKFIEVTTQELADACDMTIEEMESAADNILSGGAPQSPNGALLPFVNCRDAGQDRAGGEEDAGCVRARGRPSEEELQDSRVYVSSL
Sequence of Ionotropic glutamate receptor NMDA 1/2D (O15399 whole entry, other chains not shown): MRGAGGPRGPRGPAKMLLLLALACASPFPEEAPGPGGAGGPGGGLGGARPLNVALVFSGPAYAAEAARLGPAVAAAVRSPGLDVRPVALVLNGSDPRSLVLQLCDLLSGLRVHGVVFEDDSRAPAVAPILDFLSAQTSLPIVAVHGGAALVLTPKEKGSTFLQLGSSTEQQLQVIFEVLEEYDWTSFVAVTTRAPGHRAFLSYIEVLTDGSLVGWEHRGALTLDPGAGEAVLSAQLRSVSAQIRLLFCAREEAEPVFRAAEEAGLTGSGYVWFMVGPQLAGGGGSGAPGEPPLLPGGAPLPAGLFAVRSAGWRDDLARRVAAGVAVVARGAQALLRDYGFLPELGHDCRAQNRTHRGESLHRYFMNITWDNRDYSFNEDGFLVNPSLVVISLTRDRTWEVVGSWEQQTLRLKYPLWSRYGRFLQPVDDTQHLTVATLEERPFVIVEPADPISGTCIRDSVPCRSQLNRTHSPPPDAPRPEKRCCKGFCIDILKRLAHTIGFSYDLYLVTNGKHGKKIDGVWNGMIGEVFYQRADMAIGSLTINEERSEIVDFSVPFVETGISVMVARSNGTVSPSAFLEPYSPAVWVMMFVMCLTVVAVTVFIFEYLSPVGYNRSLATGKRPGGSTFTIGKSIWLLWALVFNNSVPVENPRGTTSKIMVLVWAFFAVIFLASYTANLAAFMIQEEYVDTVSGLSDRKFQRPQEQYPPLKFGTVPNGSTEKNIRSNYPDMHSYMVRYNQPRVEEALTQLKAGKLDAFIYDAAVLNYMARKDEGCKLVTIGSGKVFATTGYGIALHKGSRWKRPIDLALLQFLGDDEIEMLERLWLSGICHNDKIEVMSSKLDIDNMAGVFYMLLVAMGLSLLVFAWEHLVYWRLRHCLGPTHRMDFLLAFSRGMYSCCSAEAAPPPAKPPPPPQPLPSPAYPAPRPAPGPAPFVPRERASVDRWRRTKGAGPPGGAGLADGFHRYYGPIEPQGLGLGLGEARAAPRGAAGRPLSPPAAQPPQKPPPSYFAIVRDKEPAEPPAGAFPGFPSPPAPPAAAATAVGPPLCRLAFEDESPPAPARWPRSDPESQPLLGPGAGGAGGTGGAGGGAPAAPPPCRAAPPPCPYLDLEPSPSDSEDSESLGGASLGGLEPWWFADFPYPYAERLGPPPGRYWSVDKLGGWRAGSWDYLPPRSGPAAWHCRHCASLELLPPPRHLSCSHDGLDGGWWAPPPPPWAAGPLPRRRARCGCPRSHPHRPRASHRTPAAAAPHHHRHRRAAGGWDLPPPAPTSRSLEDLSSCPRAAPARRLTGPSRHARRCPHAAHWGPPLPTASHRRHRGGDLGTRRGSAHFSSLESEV

C[C@H](CC[C@](C)(O)C(F)(F)F)[C@H]1CC[C@H]2[C@@H]3CC=C4C[C@@](C)(O)CC[C@]4(C)[C@H]3CC[C@]12C [DALZANEMDOR]
EC50 [1]: 0.079 µM
microsomal CLint at 10 µM [2]: < 1 µL/min/mg
CLH [3]: 18.3 mL/min/kg
CLH [4]: 15 mL/min/kg
CLH [5]: 6.7 mL/min/kg
microsomal CLint at 10 µM [6]: 4.7 µL/min/mg
bioavailability [7]: 28%
bioavailability [8]: 30%
Kp at 1 h [9]: 0.2
IC50 (Cytochrome P450 2B6): > 100 µM
IC50 (Cytochrome P450 2C8): > 10 µM
IC50 (Cytochrome P450 2C9): > 100 µM
fraction unbound at 0.25 h [10]: 0.014
fraction unbound at 0.25 h [11]: 0.015
IC50 [12]: > 30 µM
IC50 [13]: > 30 µM
IC50 [14]: > 30 µM
IC50 [15]: > 30 µM
EC50 [16]: 0.43 µM
Activity (Mus musculus [17]): 6.9 m
Activity (Mus musculus [18]): 4.1 m
Activity (Mus musculus [19]): 27.1 Counts
Activity (Mus musculus [20]): 7.7 Counts
concentration at 1.5 h [21]: 1550 ng/mL
concentration at 1.5 h [22]: 3210 ng/mL
concentration at 1.5 h [23]: 490 ng/g
concentration at 1.5 h [24]: 1610 ng/g

Reference: ChEMBL document CHEMBL5131569, “SAGE-718: A First-in-Class N-Methyl-d-Aspartate Receptor Positive Allosteric Modulator for the Potential Treatment of Cognitive Impairment” (J Med Chem, 2022)
